Experimental data as given in patent US9874565B2, “Oncogene associated with human cancers and methods of use thereof” (Dana-Farber Cancer Institute, Inc., priority 2013, dated 2018).

Test system: hMECs transformed with MECP2
Experiment: growth inhibition of hMECs transformed with MECP2 compared with isogenic cells transformed by activated RAS
Format: cell-based, human
From the text: Because MECP2 only binds to methylated CpG sequences and hydroxymethylcytosine, and because data have shown that oncogenic activation of MECP2 depends upon its DNA-binding region, […] it is likely that the oncogenic activity of MECP2 is mediated by binding of the protein to methylated CpG sequences of hydroxymethylated cytosine. For this reason, it was investigated whether DNA methylation inhibitors hinder cell growth in a MECP2-dependent manner. DNA methylation inhibitors prevent the formation of both methylated CpG sequences and hydroxymethylated cytosine.
MECP2 is known to be present in a complex with Class I histone deacetylases. […] This led to investigation of whether MECP2-transformed cells were particularly vulnerable to HDAC inhibitors. […] Furthermore, it was shown that combined treatment with the DNA methylation inhibitor 5-azacytdine and the HDAC inhibitor Trichostatin A is synergistic in a hMEC experimental system.

SMILES	sensitivity of hMECs transformed with MECP2 relative to isogenic cells transformed by activated RAS (DNA methylation inhibitors, MECP2-transformed vs activated RAS-transformed isogenic hMECs)	susceptibility of MECP2-transformed cells relative to isogenic cells transformed by activated RAS (HDAC inhibitor, MECP2-transformed vs activated RAS-transformed isogenic cells)
Nc1ncn([C@@H]2O[C@H](CO)[C@@H](O)[C@H]2O)c(=O)n1 [5-azacytidine]	an order of magnitude more sensitive	
CC(/C=C/C(=O)NO)=C\[C@@H](C)C(=O)c1ccc(N(C)C)cc1 [Trichostatin A]		an order of magnitude more susceptible
